# Reference: publication PMC5431883, “Enhancing Specific Disruption of Intracellular Protein Complexes by Hydrocarbon Stapled Peptides Using Lipid Based Delivery” (Scientific Reports, 2017)
# Positions of bridges follow the written chain, without caps; N, C: chain ends. Non-standard residues stand in square brackets, D forms with d. Residues, ends and D or L forms follow the SMILES beside them. R8 = C=CCCCCCC[C@@](C)(N)C(=O)O; S5 = C=CCCC[C@](C)(N)C(=O)O; Ahx = NCCCCCC(=O)O
# Experiments:
# [1] = tested on: T22 p53 reporter cells; experiment: p53 gene reporter assay (β-galactosidase) in T22 cells; format: cell-based, murine; conditions: for P53 Activation (T22 Cells), 0% FCS (p53ACT50 / EC50) / P53 Activation (T22 Cells), 10% FCS (p53ACT50 / EC50): 18 h, 1% DMSO, normalised to 25 µM Nutlin, 4 parameter fit to 10 point titration
# Procedure: T22 cells, which were stably transfected with a p53 responsive β-galactosidase reporter, were seeded into a 96-well plate at a cell density of 8000 cells per well. Cells were also maintained in Dulbecco’s Minimal Eagle Medium (DMEM) with 10% fetal calf serum (FCS) and 1% (v/v) penicillin/streptomycin. The cells were incubated for 24 hours and followed by cell media removal and replacement with 90 µl of fresh DMEM either containing 10% FCS or 0% FCS. 10 µl of each compound was then added directly to each well and incubated for 18 hours. Final working concentration of DMSO was 1% v/v. […] Measurements were carried out using an Envision multiplate reader (Perkin-Elmer). […] This was then used to normalize the experimental results.
# [2] = tested on: HEK293 cells; experiment: Lactate dehydrogenase (LDH) release assay in HEK293 cells; format: cell-based; conditions: 0% FCS, 2 hour treatment, 12.5, 25 and 50 µM, normalised to 0.1% Triton X100 (Figure S1)
# Procedure: T22 cells or HEK 293 cells were seeded into a 96-well plate at a cell density of 5000 cells per well. Cells were maintained in Dulbecco’s Minimal Eagle Medium (DMEM) with 10% fetal bovine serum (FBS) and 1% (v/v) penicillin/streptomycin. The cells were incubated for 24 hours followed by cell media removal and addition of 90 µl of DMEM either with or without 10% FCS. Cells were then treated with compounds/peptide for 2 hours in DMEM with or without 10% FBS. Final working concentration of DMSO was 1% v/v. Corresponding negative control wells with 1% DMSO only were also prepared. Cytosolic lactate dehydrogenase release was detected using the cytoTox 96® non-radioactive cytotoxicity Assay kit (Promega) as per manufacturer’s instructions. Measurements were carried out using an Envision multiplate reader (Perkin-Elmer). Maximum LDH release was defined as the amount of LDH released when cells were lysed in the presence of 0.1% TRITON X-100 and was used to normalize the results. […]
# to induce LDH release in HEK293 cells after a 2 hour treatment period in A) the absence of FCS and B) the presence of 10% FCS. Compounds were tested at concentrations of 12.5 µM, 25 µM and 50 µM. Results were normalized to maximal LDH release as measured by treatment with 0.1% Triton X100.
# (1 picture or pasted object on this page, not shown here)
# [3] = target: T1, Mdm2 (1-125) (Homo sapiens, UniProt Q00987); experiment: Mdm2 competitive fluorescence anisotropy assay (FAM-labeled 12/1 peptide displacement); format: binding; conditions: for Kd: read-out: Kd (apparent dissociation constant, competitive fluorescence anisotropy); for Kd (apparent dissociation constant, competitive fluorescence anisotropy): 250 nM MDM2
# T1 construct: Purified MDM2 (1-125) protein was titrated against 50 nM carboxyfluorescein (FAM)-labeled; GST (N, cleaved yes); made in house; host or cells: E. coli BL21 DE3 (pGEX-6P-1)
# Procedure: analyzed with SDS page gel and concentrated using a Centricon (3.5 kDa MWCO) concentrator, Millipore. Mdm2 protein samples were then dialyzed into a buffer solution containing 20mM Bis-Tris, pH 6.5, 0.05M NaCl with 1mM DTT and loaded onto a monoS column pre-equilibrated in buffer A (20mM Bis-Tris, pH 6.5, 1mM DTT). The column was then washed in 6 column volumes of buffer A and bound protein was eluted with a linear gradient of 1M NaCL over 25 column volumes. Protein fractions were analyzed with SDS page gel and concentrated using a Centricon (3.5 kDa MWCO) concentrator, Millipore.
# Protein concentration was determined using A280 using an extinction coefficients […]
# Mdm2 Competitive Fluorescence Anisotropy Assay and Kd Determination […]
# Dissociation constants for titration of MDM2 against […]
# equation shown below:25,26
# [P] is the protein concentration (MDM2), [L] is the labeled peptide concentration, r is the anisotropy measured, r0 is the anisotropy of the free peptide, rb is the anisotropy of the MDM2– FAM-labeled peptide complex, Kd is the dissociation constant, [L]t is the total FAM labeled
# (1 picture or pasted object on this page, not shown here) […]
# peptide concentration, and [P]t is the total MDM2 concentration. […]
# respective competing ligands in subsequent competition assays.
# Apparent Kd values were determined for a variety of molecules via competitive fluorescence anisotropy experiments. Titrations were carried out with the concentration of MDM2 held constant […]
# The competing molecules were then titrated against the complex of the FAM-labeled peptide and protein. Apparent Kd values were determined by fitting the experimental data to the equations shown below:26,27 […]
# [L]st and [L]t denote labeled ligand and total unlabeled ligand input concentrations, respectively.
# Kd2 is the dissociation constant of the interaction between the unlabeled ligand and the protein. In […]
# all competitive types of experiments, it is assumed that [P]t > [L]st, otherwise considerable amounts of free labeled ligand would always be present and would interfere with measurements. Kd1 is the […]
# experimentally determined as described in the previous paragraph. The FAM-labeled peptide was dissolved in dimethyl sulfoxide (DMSO) at 1 mM and diluted into experimental buffer. Readings were carried out with an Envision Multilabel Reader (PerkinElmer). Experiments were carried out […]
# Tween 20 buffer. All titrations were carried out in triplicate. Curve-fitting was carried out using […]
# Negative control titrations of the ligands under investigation were also carried out with the fluorescently labeled peptide (in the absence of MDM2) to ensure no interactions were occurring between the ligands and FAM-labeled peptide. […]
# which would otherwise indicate an unintended interaction between the ligand and the FAM-labeled peptide to be displaced from the MDM2 binding site. […]
# [4] = tested on: T22 cells; experiment: Lactate dehydrogenase (LDH) release assay in T22 cells; format: cell-based, murine; conditions: for LDH Release (T22 Cells), 0% FCS (LDH50) / LDH Release (T22 Cells), 10% FCS (LDH50): 2 h treatment, normalised to 0.1% Triton X-100 lysis, 4 parameter fit to 10 point titration
# Procedure: T22 cells or HEK 293 cells were seeded into a 96-well plate at a cell density of 5000 cells per well. Cells were maintained in Dulbecco’s Minimal Eagle Medium (DMEM) with 10% fetal bovine serum (FBS) and 1% (v/v) penicillin/streptomycin. The cells were incubated for 24 hours followed by cell media removal and addition of 90 µl of DMEM either with or without 10% FCS. Cells were then treated with compounds/peptide for 2 hours in DMEM with or without 10% FBS. Final working concentration of DMSO was 1% v/v. Corresponding negative control wells with 1% DMSO only were also prepared. Cytosolic lactate dehydrogenase release was detected using the cytoTox 96® non-radioactive cytotoxicity Assay kit (Promega) as per manufacturer’s instructions. Measurements were carried out using an Envision multiplate reader (Perkin-Elmer). Maximum LDH release was defined as the amount of LDH released when cells were lysed in the presence of 0.1% TRITON X-100 and was used to normalize the results.
# T1 sequence (Q00987 1-125): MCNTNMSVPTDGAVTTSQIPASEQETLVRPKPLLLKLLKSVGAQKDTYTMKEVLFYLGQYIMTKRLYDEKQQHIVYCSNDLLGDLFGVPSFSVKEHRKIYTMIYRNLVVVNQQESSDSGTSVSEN
compound,measurement,setting,value
CC(=O)N[C@H](C(=O)N[C@@H](CO)C(=O)N[C@@H](CC(C)C)C(=O)N[C@]1(C)CCCCCCC=CCCC[C@@](C)(C(N)=O)NC(=O)[C@H](Cc2c[nH]c3ccccc23)NC(=O)[C@H](CC(C)C)NC(=O)[C@H](C)NC(=O)[C@H](Cc2ccccc2)NC(=O)[C@H](Cc2ccc(O)cc2)NC(=O)[C@H](CCC(=O)O)NC1=O)[C@@H](C)O [sMTIDE-02^SCRAM] (Ac-TSL[R8]EYFALW[S5]-NH2; staple 4-11),"P53 Activation (T22 Cells), 0% FCS (p53ACT50 / EC50)",[1],No Activity
same,"P53 Activation (T22 Cells), 10% FCS (p53ACT50 / EC50)",[1],No Activity
same,"LDH release in HEK293 cells, absence of serum (in words)",[2],induced significant amounts of LDH release
same,binding against Mdm2 in the FA competition assay (in words),[3],no binding
same,"LDH Release (T22 Cells), 0% FCS (LDH50)",[4],25.1 ± 2.8 µM
same,"LDH Release (T22 Cells), 10% FCS (LDH50)",[4],105 ± 8.0 µM
CC(=O)N[C@@H](CCCCN)C(=O)N[C@@H](CCCCN)C(=O)NCCCCCC(=O)N[C@H](C(=O)N[C@@H](CO)C(=O)N[C@@H](CC(C)C)C(=O)N[C@]1(C)CCCCCCC=CCCC[C@@](C)(C(=O)N[C@@H](CCC(=O)O)C(=O)N[C@@H](CC(N)=O)C(=O)N[C@@H](Cc2ccccc2)C(N)=O)NC(=O)[C@H](Cc2c[nH]c3ccccc23)NC(=O)[C@H](CC(C)C)NC(=O)[C@H](C)NC(=O)[C@H](Cc2ccccc2)NC(=O)[C@H](Cc2ccc(O)cc2)NC(=O)[C@H](CCC(=O)O)NC1=O)[C@@H](C)O [VIP-82^SCRAM] (Ac-KK[Ahx]TSL[R8]EYFALW[S5]ENF-NH2; staple 7-14),"P53 Activation (T22 Cells), 0% FCS (p53ACT50 / EC50)",[1],No Activity
same,"P53 Activation (T22 Cells), 10% FCS (p53ACT50 / EC50)",[1],No Activity
same,"p53 activity, peptide formulated with SaintPhD (in words)","[1]; formulated with SaintPhD, conditions identical to VIP-82:SaintPhD (Figure S2)",did not induce any p53 activity or LDH release
same,binding against Mdm2 in the FA competition assay (in words),[3],no binding
same,"LDH Release (T22 Cells), 0% FCS (LDH50)",[4],No Release
same,"LDH Release (T22 Cells), 10% FCS (LDH50)",[4],No Release
same,"LDH release, peptide formulated with SaintPhD (in words)",[4]; formulated with SaintPhD (Figure S2),did not induce any p53 activity or LDH release
CC(=O)N[C@@H](CCCNC(=N)N)C(=O)N[C@@H](CCCNC(=N)N)C(=O)N[C@@H](CCCNC(=N)N)C(=O)NCCCCCC(=O)N[C@H](C(=O)N[C@@H](CO)C(=O)N[C@@H](Cc1ccccc1)C(=O)N[C@]1(C)CCCCCCC=CCCC[C@@](C)(C(=O)N[C@@H](CCC(=O)O)C(=O)N[C@@H](CC(N)=O)C(=O)N[C@@H](Cc2ccccc2)C(N)=O)NC(=O)[C@H](CC(C)C)NC(=O)[C@H](CC(C)C)NC(=O)[C@H](C)NC(=O)[C@H](Cc2c[nH]c3ccccc23)NC(=O)[C@H](Cc2ccc(O)cc2)NC(=O)[C@H](CCC(=O)O)NC1=O)[C@@H](C)O [VIP-80] (Ac-RRR[Ahx]TSF[R8]EYWALL[S5]ENF-NH2; staple 8-15),Kd,[3],0.045 ± 0.0041 µM
CC(C)C[C@@H]1NC(=O)[C@H](C)NC(=O)[C@H](Cc2c[nH]c3ccccc23)NC(=O)[C@H](Cc2ccc(O)cc2)NC(=O)[C@H](CCC(=O)O)NC(=O)[C@](C)(NC(=O)[C@H](Cc2ccccc2)NC(=O)[C@H](CO)NC(=O)[C@@H](NC(=O)CNC(=O)[C@H](CO)NC(=O)CNC(=O)[C@H](CO)NC(=O)CCCC[C@@H]2SC[C@@H]3NC(=O)N[C@@H]32)[C@@H](C)O)CCCCCCC=CCCC[C@@](C)(C(N)=O)NC(=O)[C@H](CC(C)C)NC1=O [VIP-150],Kd,[3],0.0542 ± 0.0059 µM
CC(=O)N[C@@H](CCCNC(=N)N)C(=O)N[C@@H](CCCNC(=N)N)C(=O)NCCCCCC(=O)N[C@H](C(=O)N[C@@H](CO)C(=O)N[C@@H](Cc1ccccc1)C(=O)N[C@]1(C)CCCCCCC=CCCC[C@@](C)(C(=O)N[C@@H](CCC(=O)O)C(=O)N[C@@H](CC(N)=O)C(=O)N[C@@H](Cc2ccccc2)C(N)=O)NC(=O)[C@H](CC(C)C)NC(=O)[C@H](CC(C)C)NC(=O)[C@H](C)NC(=O)[C@H](Cc2c[nH]c3ccccc23)NC(=O)[C@H](Cc2ccc(O)cc2)NC(=O)[C@H](CCC(=O)O)NC1=O)[C@@H](C)O [VIP-117] (Ac-RR[Ahx]TSF[R8]EYWALL[S5]ENF-NH2; staple 7-14),Kd,[3],0.16 ± 0.0146 µM
CC(=O)N[C@@H](CC(C)C)C(=O)N[C@H](C(=O)N[C@@H](Cc1ccccc1)C(=O)N[C@]1(C)CCCCCCC=CCCC[C@@](C)(C(=O)N[C@@H](CCC(=O)O)C(=O)N[C@@H](CC(N)=O)C(=O)N[C@@H](Cc2ccccc2)C(N)=O)NC(=O)[C@H](CC(C)C)NC(=O)[C@H](CC(C)C)NC(=O)[C@H](C)NC(=O)[C@H](Cc2c[nH]c3ccccc23)NC(=O)[C@H](Cc2ccc(O)cc2)NC(=O)[C@H](CCC(=O)O)NC1=O)[C@@H](C)O [VIP-120] (Ac-LTF[R8]EYWALL[S5]ENF-NH2; staple 4-11),Kd,[3],0.0018 ± 0.0007 µM
CC(=O)N[C@@H](CCCCN)C(=O)NCCCCCC(=O)N[C@H](C(=O)N[C@@H](CO)C(=O)N[C@@H](Cc1ccccc1)C(=O)N[C@]1(C)CCCCCCC=CCCC[C@@](C)(C(=O)N[C@@H](CCC(=O)O)C(=O)N[C@@H](CC(N)=O)C(=O)N[C@@H](Cc2ccccc2)C(N)=O)NC(=O)[C@H](CC(C)C)NC(=O)[C@H](CC(C)C)NC(=O)[C@H](C)NC(=O)[C@H](Cc2c[nH]c3ccccc23)NC(=O)[C@H](Cc2ccc(O)cc2)NC(=O)[C@H](CCC(=O)O)NC1=O)[C@@H](C)O [VIP-116],Kd,[3],0.0151 ± 0.0017 µM
CC(=O)N[C@@H](CCCCN)C(=O)N[C@@H](CCCCN)C(=O)NCCCCCC(=O)N[C@@H](CC(C)C)C(=O)N[C@H](C(=O)N[C@@H](Cc1ccccc1)C(=O)N[C@]1(C)CCCCCCC=CCCC[C@@](C)(C(=O)N[C@@H](CCC(=O)O)C(=O)N[C@@H](CC(N)=O)C(=O)N[C@@H](Cc2ccccc2)C(N)=O)NC(=O)[C@H](CC(C)C)NC(=O)[C@H](CC(C)C)NC(=O)[C@H](C)NC(=O)[C@H](Cc2c[nH]c3ccccc23)NC(=O)[C@H](Cc2ccc(O)cc2)NC(=O)[C@H](CCC(=O)O)NC1=O)[C@@H](C)O [VIP-119] (Ac-KK[Ahx]LTF[R8]EYWALL[S5]ENF-NH2; staple 7-14),Kd,[3],0.0027 ± 0.0009 µM
